According to patent publication US11648258B2, “Method and compounds for inhibiting the MCM complex and their application in cancer treatment” (priority 2012, dated 2023):

Columns and labels:
[1] = test system: L-02 cells (normal human liver cells); experiment: in vitro; details: L-02, 48 hrs
Experimental: For testing the anti-proliferation activity of the compounds in human cell lines and calculation of IC50, cancer cells including HepG2, HeLa and Hep3B (4×10^5 cells/well) and normal L-02 cells (5×10^5 cells/well) were respectively seeded in 96-well plates in 100 μl of culture medium and incubated for about 12 hrs at 37° C. The cells were treated with two-fold serial dilutions of the drugs for 48 hrs. Medium was removed and 100 μl of culture medium containing 1 μM WST-1 (water soluble tetrazolium-1) were added to each well. The cells were incubated for 2 hrs, and absorbance at 405 nm (reference at 630 nm) was then measured. To construct the standard curve of the relationship between cell number and absorbance at OD405, serial dilutions of cells with known cell numbers were seeded and incubated for six hrs before being measured by the WST-1 assay. The cell viability was expressed as the ratio of the number of live cells treated with a candidate compound versus that of the DMSO-treated cells.
A pair of human cell lines, L-02 (normal liver cells) and HepG2 (a liver cancer cell line) was treated with 17beta-Deacetyltanghinin for 48 hrs. […] In FIG. 2B-H, quantification of viable cell numbers was carried out using WST-1 (Water-soluble tetrazolium-1) assay.
To further test 17beta-Deacetyltanghinin and to determine the IC50 values, besides L-02 and HepG2, Hep3B (another liver cancer cell line which is p53-negative), HeLa (cervical cancer cell line), HK1 and C666-1 (nasopharyngeal carcinoma) cells and a hTert-immortalized normal nasopharyngeal cell line (NP460) were treated by 17beta-Deacetyltanghinin for 48 hrs, and the relative cell vabilities were determined by WST-1 assay (FIG. 2B, C).

[2] = biological target: T1, hMcm2-hMcm6 interaction (MCM complex) (Homo sapiens, UniProt P49736+Q14566); experiment: Co-immunoprecipitation of MCM subunits in HeLa cell extracts; type: cell-based; details: asynchronous HeLa cells, whole cell extracts
T1 construct: endogenous in cells; host or cells: HeLa
T1 sequence (P49736 2-904 limits assumed): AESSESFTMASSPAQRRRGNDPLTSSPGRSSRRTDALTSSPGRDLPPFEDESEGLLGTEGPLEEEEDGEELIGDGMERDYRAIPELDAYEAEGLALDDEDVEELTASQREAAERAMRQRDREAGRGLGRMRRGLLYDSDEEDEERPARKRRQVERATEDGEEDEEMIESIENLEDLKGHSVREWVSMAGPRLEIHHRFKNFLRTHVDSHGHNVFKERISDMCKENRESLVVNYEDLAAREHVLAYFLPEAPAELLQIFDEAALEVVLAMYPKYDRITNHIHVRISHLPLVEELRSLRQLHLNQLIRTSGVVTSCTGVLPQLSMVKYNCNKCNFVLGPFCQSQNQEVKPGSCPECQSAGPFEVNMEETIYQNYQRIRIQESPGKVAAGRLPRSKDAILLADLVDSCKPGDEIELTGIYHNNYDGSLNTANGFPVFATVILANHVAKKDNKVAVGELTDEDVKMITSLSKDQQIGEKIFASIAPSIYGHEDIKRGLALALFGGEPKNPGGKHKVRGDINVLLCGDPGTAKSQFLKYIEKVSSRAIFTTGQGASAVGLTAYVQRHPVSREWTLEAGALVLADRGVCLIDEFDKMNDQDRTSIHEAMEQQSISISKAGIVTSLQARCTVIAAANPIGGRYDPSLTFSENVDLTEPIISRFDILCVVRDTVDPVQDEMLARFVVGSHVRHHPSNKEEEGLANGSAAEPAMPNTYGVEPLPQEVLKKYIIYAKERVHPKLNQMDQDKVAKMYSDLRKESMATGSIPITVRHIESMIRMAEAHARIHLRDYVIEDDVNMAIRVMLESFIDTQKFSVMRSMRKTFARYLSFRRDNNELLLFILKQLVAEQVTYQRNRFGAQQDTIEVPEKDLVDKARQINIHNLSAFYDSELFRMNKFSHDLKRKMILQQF
T1 sequence (Q14566 whole entry): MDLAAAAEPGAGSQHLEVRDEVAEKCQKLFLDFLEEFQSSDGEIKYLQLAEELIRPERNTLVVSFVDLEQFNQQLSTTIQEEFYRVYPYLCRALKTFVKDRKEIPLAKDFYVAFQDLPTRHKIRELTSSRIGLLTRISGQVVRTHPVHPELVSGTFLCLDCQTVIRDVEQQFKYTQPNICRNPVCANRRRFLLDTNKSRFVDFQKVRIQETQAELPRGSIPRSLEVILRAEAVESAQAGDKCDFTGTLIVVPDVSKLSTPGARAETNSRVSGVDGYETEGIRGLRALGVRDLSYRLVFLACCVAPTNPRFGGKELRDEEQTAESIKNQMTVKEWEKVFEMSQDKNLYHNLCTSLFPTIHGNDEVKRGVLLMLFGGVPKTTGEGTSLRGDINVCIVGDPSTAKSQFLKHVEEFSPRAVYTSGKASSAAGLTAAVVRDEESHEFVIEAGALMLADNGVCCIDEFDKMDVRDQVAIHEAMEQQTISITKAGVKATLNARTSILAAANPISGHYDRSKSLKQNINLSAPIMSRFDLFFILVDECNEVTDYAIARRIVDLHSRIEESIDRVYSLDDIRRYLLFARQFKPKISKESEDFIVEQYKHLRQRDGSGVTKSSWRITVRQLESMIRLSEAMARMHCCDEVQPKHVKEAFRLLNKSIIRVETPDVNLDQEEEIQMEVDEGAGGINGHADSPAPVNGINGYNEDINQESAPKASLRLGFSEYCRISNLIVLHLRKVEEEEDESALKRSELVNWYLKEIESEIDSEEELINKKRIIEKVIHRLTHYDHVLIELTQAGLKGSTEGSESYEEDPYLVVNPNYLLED
Experimental: To test if 17beta-Deacetyltanghinin targets hMcm2 and hMcm6 proteins in human cells, possible co-immunoprecipitation (co-IP) of the two proteins was tested in human cell extracts from cells treated with 17beta-Deacetyltanghinin. In FIG. 3, asynchronous HeLa cells were treated with DMSO or 17beta-Deacetyltanghinin (DAT) (FIG. 3A), or with DMSO, 17beta-Neriifolin (NRF) or 17beta-Deacetyltanghinin diol (Diol) (FIG. 3B), and whole cell extracts were prepared and further incubated with the compound before being used for co-IP in the presence of the compound. The immunoprecipitates were then immunoblotted with anti-hMcm 6, anti-hMcm2, anti-hMcm4 and anti-hMcm7 antibodies.

[3] = test system: L-02 (normal liver) cells and HepG2 (liver cancer) cells; experiment: Growth resumption after drug removal, WST-1 assay; type: cell-based, human; details: one day treatment, then three days in fresh medium
Experimental: Data in FIGS. 2 and 8A indicate that the anti-proliferation compounds of this invention can specifically kill cancer cells with little cytotoxicity towards normal cells. To test if normal and/or cancer cells could resume cell growth after removal of 17beta-Deacetyltanghinin, L-02 (normal liver) cells and HepG2 (liver cancer) cells were incubated with 17beta-Deacetyltanghinin or DMSO for one day, 17beta-Deacetyltanghinin or DMSO was then removed, and the cells were further incubated with fresh growth medium for three days. Viable cell numbers were monitored daily by WST-1 assay. In FIG. 9, L+DAT refers to L-02 cells treated with 17beta-Deacetyltanghinin; L+D represents L-02 cells treated with DMSO; H+DAT refers to HepG2 cells treated with 17beta-Deacetyltanghinin; and H+D represents HepG2 cells treated with DMSO before being released into fresh medium.

[4] = test system: HeLa cells xenograft tumors; experiment: In vivo anticancer activity, nude mice xenograft model; details: for suppression of tumor growth: days 1-3 and 6-10, HeLa xenograft
Experimental: In vivo anticancer activity tests were carried out in the nude mice xenograft model by inoculating nude mice with HeLa cells in both the left and right flanks. After random grouping, nude mice were treated intraperitoneally with 17beta-Deacetyltanghinin or the solvent (30% of propylene glycol in PBS). In the first test, 3 days after tumor inoculation when small tumors started to form, two groups of nude mice were treated on days 1-3 and 6-10 with 3.5 and 7.0 mg-drug/kg-body weight of 17beta-Deacetyltanghinin respectively, and another group of control mice were treated with the same volume of the solvent (FIG. 10A). In FIG. 10A, the tumor volume data represented by the small-size data point symbol linked with thin lines were obtained on the days when both measurement of tumor size and drug injections were performed, and the tumor volume data represented by the large-size data point symbol linked with thick lines were obtained on the days without drug injection. Each tumor size was average of ten tumors in five mice in each group.
(§1) A further set of animal experiments was then conducted with a longer period of time, in which fifteen drug injections at 5.0 mg/kg were performed one week after tumor inoculation when the tumor size reached 0.05-0.1 cm^3. In FIG. 10B, drug injections and tumor size measurements were performed on the days represented by the data points, and the photographs in FIG. 10C were taken on day 20.

[5] = In vivo toxicity assessment in nude mice; details: 5.0 mg/kg intraperitoneal for 20 days
Experimental: as §1
In FIG. 11, S refers to solvent-treated mice without tumor inoculation; S+T represents solvent-treated mice with tumor inoculation; DAT refers to 17beta-Deacetyltanghinin-treated mice without tumor inoculation; DAT+T represents 17beta-Deacetyltanghinin-treated mice with tumor inoculation; and P+T refers to Paelitaxel-treated mice with tumor inoculation. Three out of the five mice with intermediate tumor size in each group were selected for physiological parameters examination. The tumors (T) and internal organs including liver (L), heart (H) and kidney (K) were dissected from each mouse.
Furthermore, blood from each mouse was also collected for the tests of the ALT (alanine aminotransferase) and LDH (Lactate dehydrogenase) activities. […] The results of both tests were represented as the values of differently treated mice relative to the untreated ones.

[6] = test system: HepG2 cells (hepatocellular carcinoma); details: HepG2, 48 hrs

COC1C(O)[C@H](O[C@H]2CC[C@]3(C)C4CC[C@]5(C)[C@@H](C6=CC(=O)OC6)CC[C@]5(O)[C@@]45O[C@H]5C[C@@H]3C2)OC(C)[C@@H]1O (stereo partly drawn) [17beta-Deacetyltanghinin, 3β-O-(3-O-methyl-6-deoxy-α-L-glucopyranosyl)-7β,8β-epoxy-14β-hydroxy-card-20(22)-enolide]
activity towards normal cells, direct microscopy of cell density and morphology [1]: much lower activity | disruption of hMcm2-hMcm6 interaction (co-IP) [2]: disrupted the interaction between hMcm2 and hMcm6 | growth resumption after removal of compound [3]: normal cells, but not cancer cells, resumed growth | suppression of tumor growth ([4]; 3.5 mg/kg intraperitoneally): 70% | suppression of tumor growth ([4]; 7.0 mg/kg intraperitoneally): 90% | tumors smaller than in solvent-treated control mice ([4]; fifteen injections at 5.0 mg/kg, started one week after inoculation): over 80% | appearance of organs (liver, heart, kidney) [5]: All organs looked normal | body weight loss [5]: no obvious weight loss | organ weights relative to body weights [5]: not significantly changed | blood ALT (printed ATL) or LDH level ([5]; relative to untreated mice): did not induce significant increase | inhibition of proliferation, direct microscopy of cell density and morphology [6]: efficiently inhibit the proliferation
